Reference: ChEMBL document CHEMBL2346623, “Deconstruction of sulfonamide inhibitors of the urotensin receptor (UT) and design and synthesis of benzylamine and benzylsulfone antagonists” (Bioorg Med Chem Lett, 2013)

Assays:
[1] = target: T1, Urotensin-2 receptor (Homo sapiens, UniProt Q9UKP6); assay: Displacement of [125I]-U2 from human recombinant urotensin2 receptor expressed in human Chem-2 cells after 4 hrs by scintillation proximity assay; format: cell-based
T1 sequence (Q9UKP6 whole entry): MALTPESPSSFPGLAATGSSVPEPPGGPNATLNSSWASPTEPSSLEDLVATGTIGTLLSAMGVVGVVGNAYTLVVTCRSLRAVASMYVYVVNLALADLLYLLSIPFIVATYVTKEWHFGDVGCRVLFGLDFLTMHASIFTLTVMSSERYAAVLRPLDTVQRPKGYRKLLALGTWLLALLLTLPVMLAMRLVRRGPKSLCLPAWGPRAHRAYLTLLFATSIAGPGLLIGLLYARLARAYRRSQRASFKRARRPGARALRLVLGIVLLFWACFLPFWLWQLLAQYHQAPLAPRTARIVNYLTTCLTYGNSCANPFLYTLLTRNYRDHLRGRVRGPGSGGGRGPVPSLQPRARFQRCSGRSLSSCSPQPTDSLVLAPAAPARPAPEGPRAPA

[2] = Drug metabolism in human liver microsomes relative to total liver blood flow; format: ADME, Microsome; details: read-out: Drug metabolism
[3] = target: T1, Urotensin-2 receptor; assay: Antagonist activity at recombinant human urotensin2 receptor expressed in CHO cells assessed as inhibition of urotensin2-stimulated Ca2+ mobilization after 1 hr by FLIPR assay; format: functional, cell-based
[4] = target: T2, Urotensin-2 receptor (Mus musculus, UniProt Q8VIH9); assay: Antagonist activity at mouse urotensin2 receptor assessed as inhibition of urotensin2-stimulated Ca2+ mobilization by cell-based assay; format: functional
T2 sequence (Q8VIH9 whole entry): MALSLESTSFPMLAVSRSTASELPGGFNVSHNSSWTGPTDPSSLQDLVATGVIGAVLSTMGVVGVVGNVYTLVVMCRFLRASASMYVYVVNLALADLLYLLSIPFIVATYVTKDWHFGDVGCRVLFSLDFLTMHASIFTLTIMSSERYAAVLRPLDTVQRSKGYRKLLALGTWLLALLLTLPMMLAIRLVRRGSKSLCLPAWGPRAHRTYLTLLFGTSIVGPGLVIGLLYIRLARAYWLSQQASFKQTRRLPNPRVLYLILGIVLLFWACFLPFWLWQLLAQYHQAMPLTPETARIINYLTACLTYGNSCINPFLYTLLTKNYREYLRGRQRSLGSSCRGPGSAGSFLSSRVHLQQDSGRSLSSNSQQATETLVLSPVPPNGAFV

[5] = Solubility of the compound at pH 4.5; format: physicochemical; details: buffer
[6] = Solubility of the compound at pH 7.4; format: physicochemical; details: buffer
[7] = Drug metabolism in rat liver microsomes relative to total liver blood flow; format: ADME, Microsome; details: read-out: Drug metabolism
[8] = target: T3, Urotensin-2 receptor (Rattus norvegicus, UniProt P49684); assay: Antagonist activity at rat urotensin2 receptor assessed as inhibition of urotensin2-stimulated Ca2+ mobilization by cell-based assay; format: functional
T3 sequence (P49684 whole entry): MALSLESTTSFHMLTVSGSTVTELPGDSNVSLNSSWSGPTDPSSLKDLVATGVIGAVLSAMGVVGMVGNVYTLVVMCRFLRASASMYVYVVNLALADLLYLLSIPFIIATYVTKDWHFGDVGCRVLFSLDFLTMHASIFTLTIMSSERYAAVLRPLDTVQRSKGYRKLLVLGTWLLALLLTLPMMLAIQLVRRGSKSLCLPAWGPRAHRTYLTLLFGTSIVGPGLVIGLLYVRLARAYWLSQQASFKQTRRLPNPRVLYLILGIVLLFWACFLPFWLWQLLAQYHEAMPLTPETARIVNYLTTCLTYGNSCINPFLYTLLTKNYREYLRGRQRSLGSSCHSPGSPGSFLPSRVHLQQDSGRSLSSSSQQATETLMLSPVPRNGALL

[9] = target: T1, Urotensin-2 receptor; assay: Antagonist activity at recombinant human urotensin2 receptor expressed in CHO cells assessed as inhibition of urotensin2-stimulated Ca2+ mobilization incubated 10 mins prior to urotensin2 stimulation measured after 10 mins by fluorometric analysis; format: functional, cell-based
[10] = target: T1, Urotensin-2 receptor; assay: Displacement of [125I]-U2 from recombinant human urotensin2 receptor expressed in human U2OS cells after 30 mins by gamma counting analysis; format: cell-based

SMILES	IC50 [1] [nM]	hepatic extraction ratio [2]	IC50 [3] [nM]	also measured
COc1cc(Br)c([S+]([O-])Cc2ccc(Cl)c(O[C@@H]3CCN(C)C3)c2)cc1OC (stereo partly drawn)	245	0.72		
CN(C)CCOc1cc(NCc2ccccc2)ccc1Cl	> 10000			
COc1cc(Br)c(S(=O)(=O)Nc2ccc(C(F)(F)F)c(OCCN(C)C)c2)cc1OC	134		100	
COc1cc(Br)c(SCc2ccc(Cl)c(O[C@@H]3CCN(C)C3)c2)cc1OC	440	0.76		
COc1cc(Br)c(S(=O)(=O)Nc2ccc(Cl)c(O[C@@H]3CCN(C)C3)c2)cc1OC	23	0.65	43	
COc1cc(Br)c(CNc2ccc(Cl)c(O[C@H]3CCN(C)C3)c2)cc1OC	1350	0.36	1450	
COc1cc(Br)c(S(=O)(=O)Nc2ccc(C(F)(F)F)c(OC[C@H]3CCCN3C)c2)cc1OC	800		350	
CN(C)CCOc1cc(NCc2ccccc2C(F)(F)F)ccc1Cl	520		765	
COc1cc(Br)c(CNc2ccc(C(F)(F)F)c(O[C@H]3CCN(C)C3)c2)cc1OC	217	0.43	191	IC50 [4]: 6400 nM; solubility [5]: > 52 µg/mL; solubility [6]: > 52 µg/mL; hepatic extraction ratio [7]: < 0.06; IC50 [8]: 3900 nM
COc1cc(Br)c(CNc2ccc(Cl)c(OCCN(C)C)c2)cc1OC	1200		1300	
CN1CC[C@H](Oc2cc(NCc3cc4c(cc3Br)OCO4)ccc2C(F)(F)F)C1	450		950	
COc1cc(Br)c(S(=O)(=O)Cc2ccc(Cl)c(O[C@@H]3CCN(C)C3)c2)cc1OC				IC50 [4]: 4700 nM; solubility [5]: > 87 µg/mL; solubility [6]: > 87 µg/mL; IC50 [8]: 2000 nM
CN1CC[C@H](Oc2cc(NCc3cccs3)ccc2C(F)(F)F)C1	2700		2000	
COc1cccc(CNc2ccc(C(F)(F)F)c(O[C@H]3CCN(C)C3)c2)c1	691		1130	
CN1CC[C@H](Oc2cc(NCc3ccccc3Br)ccc2C(F)(F)F)C1	821		1870	
COc1cc(Br)c(CNc2ccc(Cl)c(O[C@@H]3CCN(C)C3)c2)cc1OC	237	0.28	1330	
COc1cc(Br)c(S(=O)(=O)Nc2ccc(C(F)(F)F)c(OCCN3CCOCC3)c2)cc1OC	6200			
CN1CC[C@H](Oc2cc(NCc3c(Br)ccc4c3OCO4)ccc2C(F)(F)F)C1	620		1400	
COc1cc(Br)c(S(=O)(=O)Nc2ccc(C(F)(F)F)c(OCCN3CCN(C)CC3)c2)cc1OC	840			
CN(C)CCOc1cc(NCc2ccccc2Br)ccc1Cl	3500		6000	
COc1cc(Br)c(S(=O)(=O)Nc2ccc(C(F)(F)F)c(OC[C@@H]3CCCN3C)c2)cc1OC	2100			
Cc1cc(NC(=O)NCCN2CCC(O)(Cc3ccccc3)CC2)c2ccccc2n1 [PALOSURAN]		0.53		IC50 [9]: 39 nM; IC50 [10]: < 5 nM
COc1cc(Br)c(S(=O)(=O)Nc2ccc(C(F)(F)F)c(F)c2)cc1OC	> 10000			
